Measured values: paper PMC5793879 (Cancer cell, 2017)
Read-outs that look alike come from different tables or passages of the source. Each block holds one compound with its values, some of them ahead of it. Bridge positions count the residues as written; N and C are the ends. Square brackets hold non-standard residues; d marks the D form. Peptide text beside a SMILES is read from it. S5 = C=CCCC[C@](C)(N)C(=O)O

Experiments:
[1] = target: BCL-XL (Homo sapiens, UniProt Q07817); assay type: binding; conditions: BTSA1 at 50 μM
Chain of BCL-XL (Q07817 1-212 limits assumed): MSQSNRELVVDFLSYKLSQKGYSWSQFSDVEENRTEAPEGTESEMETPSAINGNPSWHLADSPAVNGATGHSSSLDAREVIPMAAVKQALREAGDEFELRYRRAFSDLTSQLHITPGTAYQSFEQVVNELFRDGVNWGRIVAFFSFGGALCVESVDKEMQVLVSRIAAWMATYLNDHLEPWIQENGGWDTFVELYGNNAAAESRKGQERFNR

[2] = target: MCL-1 (Homo sapiens, UniProt Q07820); assay type: binding
Chain of MCL-1 (Q07820 170-327 limits assumed): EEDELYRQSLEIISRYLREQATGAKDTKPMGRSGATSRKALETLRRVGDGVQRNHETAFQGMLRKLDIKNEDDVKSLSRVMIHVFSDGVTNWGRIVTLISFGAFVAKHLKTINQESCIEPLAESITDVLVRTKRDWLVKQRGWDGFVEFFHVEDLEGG

[3] = target: T1, BFL-1/A1 (Homo sapiens, UniProt Q16548); assay type: binding; conditions: BTSA1 at 50 μM
T1 sequence (Q16548 1-151 limits assumed): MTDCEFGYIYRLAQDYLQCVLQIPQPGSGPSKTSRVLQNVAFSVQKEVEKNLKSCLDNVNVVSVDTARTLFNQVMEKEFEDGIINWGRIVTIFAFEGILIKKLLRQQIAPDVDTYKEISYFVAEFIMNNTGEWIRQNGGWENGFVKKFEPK

[4] = system: MEF cell lines; assay: Viability assay of MEF cell lines; assay type: cell-based, mouse
[5] = system: isolated mitochondria from mouse liver; conditions: without addition of BAX
[6] = system: BAX KO MEF, DKO MEF, wild type MEF, H9c2 myocytes, 3T3 fibroblasts
[7] = target: BAX trigger site (full-length BAX) (Homo sapiens, UniProt Q07812); assay type: binding; conditions: relative to BTSA1
Chain of BAX trigger site (full-length BAX) (Q07812 whole entry): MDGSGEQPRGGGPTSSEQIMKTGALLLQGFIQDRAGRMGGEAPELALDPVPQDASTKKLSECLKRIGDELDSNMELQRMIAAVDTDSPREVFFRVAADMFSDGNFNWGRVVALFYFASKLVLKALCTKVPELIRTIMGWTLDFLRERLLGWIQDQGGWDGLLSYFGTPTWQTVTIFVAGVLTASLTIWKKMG

[8] = system: OCI-AML3 cells; assay: Caspase-3/7 activation assay; assay type: cell-based, human; conditions: co-treatment with BTSA1

competition of FITC-BIM SAHBA2 binding to BCL-XL [1]: effectively competed
competition of FITC-BIM SAHBA2 binding to MCL-1 ([2]; BTSA1 at 50 μM): effectively competed
competition of FITC-BIM SAHBA2 binding to BFL-1/A1 [3]: effectively competed
Structure (SMILES): CC[C@H](C)[C@H](NC(=O)[C@H](Cc1c[nH]c2ccccc12)NC(=O)[C@@H](NC(=O)[C@H](CCC(=O)O)NC(C)=O)[C@@H](C)CC)C(=O)N[C@@H](C)C(=O)N[C@@H](CCC(N)=O)C(=O)N[C@@H](CCC(=O)O)C(=O)N[C@@H](CC(C)C)C(=O)N[C@@H](CCCNC(=N)N)C(=O)N[C@@]1(C)CCCC=CCCC[C@@](C)(C(=O)N[C@@H](Cc2ccccc2)C(=O)N[C@@H](CC(N)=O)C(=O)N[C@@H](C)C(=O)N[C@@H](Cc2ccc(O)cc2)C(=O)N[C@@H](Cc2ccc(O)cc2)C(=O)N[C@@H](C)C(N)=O)NC(=O)[C@H](CC(=O)O)NC(=O)CNC(=O)[C@H]([C@@H](C)CC)NC1=O [BIM SAHBA2, reference compound] (Ac-EIWIAQELR[S5]IGD[S5]FNAYYA-NH2; staple 10-14 (inferred))

Structure (SMILES): O=C1C(=NNc2nccs2)C(c2ccccc2)=NN1c1nc(-c2ccccc2)cs1 [BTSA1]
competition of FITC-BIM SAHBA2 binding to BCL-XL [1]: no capacity to compete
competition of FITC-BIM SAHBA2 binding to MCL-1 [2]: no capacity to compete
sensitivity of MEF cell lines [4]: insensitive
cytochrome c release [5]: no effect
sensitivity to treatment, cells with no BAX expression ([6]; BAX KO MEF and DKO MEF, 24 hr): exhibit resistance
sensitivity to treatment, cells that express BAX ([6]; wild type MEF, H9c2 myocytes, 3T3 fibroblasts, doses giving complete cell death in AML cells): still exhibit resistance

reduction in binding capacity to BAX [7]: ~ 10 fold
Structure (SMILES): CC1=NN(c2nc(-c3ccccc3)cs2)C(=O)C1=NNc1nccs1 [BTSA2]

Structure (SMILES): CC1(C)CCC(c2ccc(Cl)cc2)=C(CN2CCN(c3ccc(C(=O)NS(=O)(=O)c4ccc(N[C@H](CCN5CCOCC5)CSc5ccccc5)c(S(=O)(=O)C(F)(F)F)c4)cc3)CC2)C1 [Navitoclax, reference compound]
IC50 ([4]; Mus musculus, MEF, read-out: IC50, viability): 1 to 5 µM

Structure (SMILES): OC(CN1CCNCC1)Cn1c2ccc(Br)cc2c2cc(Br)ccc21 (stereo not drawn) [reference compound]
inhibition of BTSA1-mediated apoptosis measured by caspase-3/7 activation [8]: complete inhibition
